The values below come from ChEMBL document CHEMBL4808217, “Design, Synthesis, and Characterization of 4-Aminoquinazolines as Potent Inhibitors of the G Protein-Coupled Receptor Kinase 6 (GRK6) for the Treatment of Multiple Myeloma” (J Med Chem, 2021).

For experiment [1], the target named is T1, G protein-coupled receptor kinase 6 (Homo sapiens, UniProt P43250). As to the kind of experiment: Inhibition of recombinant full-length human GRK6 using casein as substrate measured after 80 mins in presence of [gamma33P]ATP by radiometric scintillation counting method.
T1 sequence (P43250 whole entry): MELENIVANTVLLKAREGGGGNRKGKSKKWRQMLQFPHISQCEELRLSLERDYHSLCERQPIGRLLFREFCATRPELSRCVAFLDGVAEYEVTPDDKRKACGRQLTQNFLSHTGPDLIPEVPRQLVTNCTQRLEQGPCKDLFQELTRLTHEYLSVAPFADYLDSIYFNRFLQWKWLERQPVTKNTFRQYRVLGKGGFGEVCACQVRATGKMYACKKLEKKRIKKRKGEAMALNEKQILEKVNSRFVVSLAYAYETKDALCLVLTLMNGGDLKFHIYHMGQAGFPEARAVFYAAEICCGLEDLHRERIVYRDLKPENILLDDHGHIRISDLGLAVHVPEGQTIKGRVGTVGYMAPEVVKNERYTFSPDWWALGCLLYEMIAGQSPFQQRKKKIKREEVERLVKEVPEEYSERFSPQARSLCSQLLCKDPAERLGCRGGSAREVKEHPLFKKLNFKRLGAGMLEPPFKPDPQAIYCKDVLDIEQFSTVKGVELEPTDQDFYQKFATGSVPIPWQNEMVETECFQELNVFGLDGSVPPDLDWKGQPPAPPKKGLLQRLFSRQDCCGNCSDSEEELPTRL
Another experiment deals with T2, Aurora kinase A (Homo sapiens, UniProt O14965).
T2 sequence (O14965 whole entry): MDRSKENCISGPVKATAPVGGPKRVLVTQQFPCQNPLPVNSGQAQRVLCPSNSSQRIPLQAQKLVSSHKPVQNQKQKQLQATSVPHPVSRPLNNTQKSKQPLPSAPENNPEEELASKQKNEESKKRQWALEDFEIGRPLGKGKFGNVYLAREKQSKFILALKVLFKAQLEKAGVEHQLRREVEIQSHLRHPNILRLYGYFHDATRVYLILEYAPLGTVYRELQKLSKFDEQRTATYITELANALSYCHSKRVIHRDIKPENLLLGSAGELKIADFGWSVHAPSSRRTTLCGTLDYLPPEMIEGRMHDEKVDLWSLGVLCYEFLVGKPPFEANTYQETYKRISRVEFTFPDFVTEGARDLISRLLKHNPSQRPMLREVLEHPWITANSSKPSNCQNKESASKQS
The experiment in a line: Inhibition of recombinant full length human Aurora A using LRRASLG as substrate incubated for 40 mins in presence of [gamma-33ATP] by radiometric scintillation counting method.

For experiment [2], the target named is T1, G protein-coupled receptor kinase 6. As to the kind of experiment: Binding affinity to FLAG-tagged GRK6 in human KMS11 cells incubated for […] by ITDR assay. Format: cell-based, KMS-11.
For experiment [3], the target named is Insulin-like growth factor 1 receptor (Homo sapiens, UniProt P08069). As to the kind of experiment: Inhibition of recombinant human IGF-1R (959 to end residues) using KKKSPGEYVNIEF as substrate incubated for 40 mins in presence of [gamma-33ATP] by radiometric scintillation counting method.
Insulin-like growth factor 1 receptor, sequence (P08069 31-736 limits assumed): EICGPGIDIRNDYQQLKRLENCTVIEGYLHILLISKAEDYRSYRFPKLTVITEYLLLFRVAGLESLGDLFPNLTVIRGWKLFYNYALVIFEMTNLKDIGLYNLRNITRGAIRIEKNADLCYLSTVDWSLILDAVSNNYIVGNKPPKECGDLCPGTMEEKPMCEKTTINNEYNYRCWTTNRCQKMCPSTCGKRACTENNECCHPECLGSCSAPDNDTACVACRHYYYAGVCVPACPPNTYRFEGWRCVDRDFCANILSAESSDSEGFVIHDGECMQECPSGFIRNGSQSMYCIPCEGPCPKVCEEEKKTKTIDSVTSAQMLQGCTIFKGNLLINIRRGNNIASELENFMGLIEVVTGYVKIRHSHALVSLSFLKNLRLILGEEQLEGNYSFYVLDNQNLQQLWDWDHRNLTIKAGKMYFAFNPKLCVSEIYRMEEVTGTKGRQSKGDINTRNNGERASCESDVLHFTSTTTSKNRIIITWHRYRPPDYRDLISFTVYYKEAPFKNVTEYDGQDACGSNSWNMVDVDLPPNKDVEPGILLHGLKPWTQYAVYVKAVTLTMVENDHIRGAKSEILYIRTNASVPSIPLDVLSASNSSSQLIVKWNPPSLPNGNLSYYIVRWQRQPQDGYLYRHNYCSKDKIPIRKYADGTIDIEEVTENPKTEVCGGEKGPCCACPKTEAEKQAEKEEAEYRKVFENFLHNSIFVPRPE
Insulin-like growth factor 1 receptor, sequence (P08069 741-1367 limits assumed): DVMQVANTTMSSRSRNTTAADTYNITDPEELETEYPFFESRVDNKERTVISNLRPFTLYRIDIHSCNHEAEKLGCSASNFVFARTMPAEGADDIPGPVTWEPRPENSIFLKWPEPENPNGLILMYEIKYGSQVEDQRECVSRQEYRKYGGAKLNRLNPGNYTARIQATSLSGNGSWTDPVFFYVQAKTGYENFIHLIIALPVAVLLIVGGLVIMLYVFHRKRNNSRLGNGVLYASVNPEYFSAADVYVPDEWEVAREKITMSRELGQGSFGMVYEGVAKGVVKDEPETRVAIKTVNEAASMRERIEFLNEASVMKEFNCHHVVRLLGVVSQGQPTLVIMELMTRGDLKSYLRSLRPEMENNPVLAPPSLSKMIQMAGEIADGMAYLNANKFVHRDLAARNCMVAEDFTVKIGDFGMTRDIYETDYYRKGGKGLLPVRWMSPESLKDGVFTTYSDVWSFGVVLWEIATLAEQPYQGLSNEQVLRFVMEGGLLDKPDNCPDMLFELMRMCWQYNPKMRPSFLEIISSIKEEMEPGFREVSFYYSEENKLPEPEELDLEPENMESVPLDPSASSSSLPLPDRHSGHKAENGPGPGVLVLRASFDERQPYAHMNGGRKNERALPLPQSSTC

For orientation: IC50 means the point on the concentration scale where inhibition reaches its midpoint.

With `CCc1cc(Nc2nc(N[C@@H](C)c3ccc(F)cc3)nc3ccccc23)n[nH]1`, the IC50 in experiment [1] was 120 nM; at Aurora kinase A, 11 nM. In the case of `CCc1cc(Nc2nc(NCCc3ccc(F)cc3)nc3ccc(OC)cc23)n[nH]1`, in experiment [1], the IC50 was 460 nM.

As for `CCc1cc(Nc2nc(N[C@@H](C)c3ccc(F)cc3)nc3ccc(F)cc23)n[nH]1`, the IC50 in experiment [1] was found to be 160 nM.

Consider `CCc1cc(Nc2nc(NCCc3ccc(F)cc3)nc3ccccc23)n[nH]1`, for which the IC50 was determined as 190 nM in experiment [1] and 41 nM at Aurora kinase A. In the case of `CCc1cc(Nc2nc(N[C@@H](C)c3cccc(F)c3)nc3ccccc23)n[nH]1`, the 50% inhibitory concentration (IC50) in experiment [1] was found to be 340 nM. For the compound `CCc1cc(Nc2nc(N[C@@H](C)c3ccc(Cl)cn3)nc3cccc(OC)c23)n[nH]1`, the IC50 in experiment [1] was determined as 3.5 nM; at Aurora kinase A, 22000 nM. As for `CCc1cc(Nc2nc(N[C@@H](C)c3ccc(F)cn3)nc3cccc(C)c23)n[nH]1`, the IC50 in experiment [1] amounted to 11 nM; in experiment [2], 610 nM; on Aurora kinase A, 330 nM. In the case of `CCc1cc(Nc2nc(N[C@@H](C)c3ccc(F)cc3)nc3ccc(OC)cc23)n[nH]1`, the IC50 in experiment [1] is 140 nM. Take `CCc1cc(Nc2nc(NC3(c4ccc(Cl)cc4)CC3)nc3ccccc23)n[nH]1`: the IC50 in experiment [1] was determined as 280 nM. On the same count and under the same terms, the figure for `CCc1cc(Nc2nc(N[C@@H](C)C3CCCCC3)nc3ccccc23)n[nH]1` is 960 nM; for `CCc1cc(Nc2nc(NCCc3ccc(F)cc3)nc3ccc(F)cc23)n[nH]1` it is 310 nM. Take `CCc1cc(Nc2nc(N[C@@H](C)c3ccc(C)cc3)nc3cccc(F)c23)n[nH]1`: the IC50 in experiment [1] worked out at 27 nM; on Aurora kinase A, 75 nM. Regarding `Fc1cccc2nc(NCCc3ccccc3)nc(Nc3ccon3)c12`, the IC50 in experiment [1] is > 10000 nM. As for `CCc1cc(Nc2nc(N[C@@H](C)c3ccc(Cl)cc3)nc3ccccc23)n[nH]1`, the IC50 in experiment [1] was determined as 70 nM. On the same count and under the same terms, the same measure for `CCc1cc(Nc2nc(N[C@@H](C)c3ccc(F)cc3)nc3cc(F)ccc23)n[nH]1`: 100 nM.

With `CCc1cc(Nc2nc(NCc3ccc(F)cc3)nc3ccccc23)n[nH]1`, the concentration for half-maximal inhibition (IC50) in experiment [1] was determined as 250 nM. Consider `CCc1cc(Nc2nc(NCCc3ccccc3)nc3cccc(OC)c23)n[nH]1`, for which the figures for the IC50 (in experiment [1]; on Aurora kinase A; in experiment [3]) were 10 nM, > 10000 nM and > 10000 nM, respectively. Consider `CCc1cc(Nc2nc(NCc3ccc(Cl)cc3)nc3cccc(OC)c23)n[nH]1`, for which the IC50 in experiment [1] was 16 nM; in experiment [2] it was 2000 nM; at Aurora kinase A, > 10000 nM; in experiment [3], > 10000 nM.

For `CCc1cc(Nc2nc(NCc3ccc(Cl)cc3)nc3cccc(C)c23)n[nH]1`, the IC50 in experiment [1] was 27 nM; at Aurora kinase A, 1200 nM; in experiment [3], > 10000 nM. In the case of `CCc1cc(Nc2nc(N[C@@H](C)c3ccc(F)cc3)nc3cccc(F)c23)n[nH]1`, the concentration for half-maximal inhibition (IC50) worked out at 41 nM in experiment [1] and 51 nM at Aurora kinase A. The corresponding values for `CCc1cc(Nc2nc(N[C@@H](C)c3ncc(F)cn3)nc3cccc(F)c23)n[nH]1` are 230 nM and 80 nM. For `Fc1cccc2nc(NCCc3ccccc3)nc(Nc3cc[nH]n3)c12`, the IC50 in experiment [1] amounted to 2500 nM. Same read-out and setting: the same measure for `CCc1cc(Nc2nc(N[C@H](C)c3ccc(F)cc3)nc3ccccc23)n[nH]1`: 1400 nM; for `CCn1cnc(Nc2nc(N[C@@H](C)c3ccc(F)cn3)nc3cccc(F)c23)c1`: 280 nM.

With `CCc1cc(Nc2nc(N[C@@H](C)c3ccc(F)cn3)nc3cccc(F)c23)n[nH]1`, the values for the concentration for half-maximal inhibition (IC50) (in experiment [1]; on Aurora kinase A) were 29 nM and 25 nM, respectively. The corresponding values for `CCc1cc(Nc2nc(NCCc3ccc(F)cc3)nc3cccc(F)c23)n[nH]1` are 110 nM and 180 nM. For the compound `CCc1cc(Nc2nc(NCCc3ccc(F)cc3)nc3cc(Cl)ccc23)n[nH]1`, the IC50 in experiment [1] is 1100 nM. On the same count and under the same terms, the figure for `CCc1cc(Nc2nc(N[C@@H](C)c3ccc(F)cc3)nc3cc(Cl)ccc23)n[nH]1` is 440 nM; for `CCOc1ccc(Nc2nc(N[C@@H](C)c3ccc(F)cn3)nc3cccc(F)c23)cn1` it is > 10000 nM; for `CCc1cc(Nc2nc(NCCc3ccc(F)cc3)nc3cc(F)ccc23)n[nH]1` it is 180 nM.

Turning to `CCc1cc(Nc2nc(NCc3ccc(Cl)cc3OC)nc3cccc(C)c23)n[nH]1`, the values for the IC50 (in experiment [1]; in experiment [2]; at Aurora kinase A) were 6 nM, 170 nM and 1200 nM, respectively. With `CCc1cc(Nc2nc(NCCc3ccccc3)nc3cccc(F)c23)n[nH]1`, the half-maximal inhibitory concentration (IC50) in experiment [1] stood at 20 nM. Same read-out and setting: the same measure for `CCc1cc(Nc2nc(NCc3ccc(Cl)cc3OC)nc3ccccc23)n[nH]1`: 40 nM. With `CCc1cc(Nc2nc(N[C@@H](C)c3ccc(C#N)cn3)nc3cccc(F)c23)n[nH]1`, the IC50 in experiment [1] turned out to be 91 nM; on Aurora kinase A, 220 nM. Take `CCc1cc(Nc2nc(N[C@@H](C)c3ccc(OC)cc3)nc3ccccc23)n[nH]1`: the concentration for half-maximal inhibition (IC50) in experiment [1] is 290 nM. For `CCc1cc(Nc2nc(NCCN3CCOCC3)nc3cccc(F)c23)n[nH]1`, the half-maximal inhibitory concentration (IC50) in experiment [1] came out at 1400 nM.
